Measured values published in patent publication US8808500B2, “Method for the use of oxidants for microbial control under reducing conditions” (Lonza Inc., priority 2011, dated 2014).

Assays:
[1] = Residual total halogen (DPD) after adding sodium hypochlorite to borohydride solution; type: physicochemical; details: for Total Halogen without DMDMH: borohydride solution, no DMDMH; for Total Halogen with DMDMH: borohydride solution treated with DMDMH
Description: The remaining halogen concentration was then measured by standard DPD total halogen methodologies over time.
(§1) For comparison, the residual total halogen (as Cl2) was analyzed without the use of dimethyloldimethylhydantoin.

[2] = ORP of sodium borohydride solution over time after adding aldehyde donor; type: physicochemical
Description: Aqueous solutions containing sodium borohydride were mixed at 21° C. to obtain a solution having an initial borohydride content (as NaBH4) of 30-50 ppm, an alkalinity (as CaCO3) of 400 ppm, and a pH of 8.5-9.5. The temperature of the solution was maintained at 21° C. and the ORP of the solution was measured at specified time intervals. The procedure consisted of adding a known amount of aldehyde donor, such as dimethyloldimethylhydantoin or glyoxal, to the samples at a known molar ratio with respect to the borohydride content and following the time-dependence of the ORP.
as §1

[3] = 2 min after addition of sodium hypochlorite
[4] = 43 min after addition of sodium hypochlorite

Total Halogen without DMDMH [1, 3]	Total Halogen without DMDMH [1, 4]	Compound	ORP - DMDMH treated [2, 3]	ORP - DMDMH treated [2, 4]	Total Halogen with DMDMH [1, 3]	Total Halogen with DMDMH [1, 4]
<0.1 ppm as Cl2	<0.1 ppm as Cl2	OCl [sodium hypochlorite, reference compound]				
		CC1(C)C(=O)N(CO)C(=O)N1CO [DMDMH, dimethyloldimethylhydantoin]	−251 mV	−77 mV	1.59 ppm as Cl2	1.33 ppm as Cl2
